Test results: patent US20240226052A1, “A SPECIFIC COMBINATION OF LIPIDS AND METHODS AND USES RELATED THERETO” (HELSINGIN YLIOPISTO, priority 2021, published 2024)

How the values were obtained:
[1] = Surface pressure and surface potential isotherms and Brewster angle microscopy at the air-buffer interface; type: physicochemical; details: 35 °C; for spreading / monolayer formation on the aqueous surface: PBS
Method: (§1) The lipid species were either synthesized as described above or obtained from commercial sources (e.g. Nu-Check-Prep, Elysian, MN) and studied on their own at first. A wide range of lipid mixtures were prepared by weighing selected compounds at specific ratios and further dilution in chloroform to obtain selected concentrations. A 2 mM concentration of the corresponding mixtures was used in the surface potential and pressure measurements and a 5 mM concentration in the evaporation resistance measurements discussed herein.
The lipid mixtures dissolved in chloroform or the formulations were spread onto the air-buffer interface of either a KSV minitrough (Helsinki, Finland) or a KSV large trough which was filled with PBS buffer. Chloroform was allowed to evaporate for 3 min before starting measurements. The surface pressure was measured using a Wilhelmy plate, the surface potential was measured using a KSV surface potential sensor (Espoo, Finland) and Brewster angle microscopy images were captured using a KSV NIMA microBAM (Espoo, Finland) instrument. The films were compressed at a constant rate of 5 or 10 mm/min and the subphase temperature was kept at 35±1° C. The measurements were performed in an acrylic box under an ozone-free atmosphere to prevent undesired oxidation. An ozone-free atmosphere was generated by passing dry air through ODS-3P ozone destruct unit (Ozone solutions, Hull, Iowa) at a rate of 76 l/min within the enclosure.
The organizational behavior of FAHFA/OAHFA and wax ester mixtures were investigated by measuring surface pressure and surface potential isotherms, and, imaging the monolayer structure with a Brewster angle microscope. A phosphate buffered saline (PBS) solution was used as an in vitro model of the ocular surface and the measurements were conducted at physiological temperature (35° C.). With this model system, it is possible to accurately simulate the conditions residing on the ocular surface and the changes occurring during a blink of the eye, both in terms of surface pressure and the capabilities of the monolayer to respread over many compression-expansion cycles. Thus, the study protocol provides the essential information required for evaluating the suitability of the composition in the intended applications. More details on the study protocol can be found in the inventors' previous publications on the topic (Paananen, Ekholm et. al. in Langmuir 2019, Ocul. Surf. 2020, J. Org. Chem. 2021).

[2] = Evaporation resistance of lipid films (modified Langmuir-Schaefer desiccant cartridge method); type: physicochemical; details: lipid film on PBS, 35 °C; compressed to Mma 2-40 Å^2/molecule
Method: as §1
Evaporation resistance is a property of the lipid film residing on top or above an aqueous surface, independent of the measurement method and conditions of the measurement. […] Evaporation resistance of the lipid film can be determined, for example, by measuring the evaporative flux from the aqueous surface without the lipid layer, Jw, and with a lipid film present, Jf. […] The lipid film evaporation resistance can be expressed as a function of measured quantities as rm=Δc(1/Jf−1/Jw).
In this example, the evaporation resistance was determined according to the method originally developed by Langmuir et al. (Langmuir, I. and Schaefer, V., J. 1943, J. Franklin Inst., Vol. 235, 119-162) although with certain modifications (as set out in Bland et al., Langmuir, 2019, 35, 3545-3552 (Supp. Info.). […]

| spreading / monolayer formation on the aqueous surface [1] | mean molecular area at surface pressure lift-off ([1]; pure lipid on PBS) [Å^2/molecule] | melting point [°C] | maximum evaporation resistance [2] [s/cm] | surface pressure at transition to a solid monolayer ([1]; pure lipid on PBS) [mN/m] | SMILES |
| --- | --- | --- | --- | --- | --- |
| form liquid monolayers upon spreading | 70 | – | – | – | CCCCCCCC/C=C\CCCCCCCC(=O)OCCCCCCCCCCCCCCCCCCCC [AO, arachidyl oleate] |
| – | – | 36 to 37.5 | – | – | CCCCCCCC/C=C\CCCCCCCC(=O)OCCCCCCCCCCCCCCCCCCCCCCCC(C)C [Example 5, 24-methylpentacosyl oleate] |
| form liquid monolayers upon spreading | 140 | – | 3 to 5 | 2 | CCCCCCCC/C=C\CCCCCCCC(=O)OCCCCCCCCCCCCCCCCCCCC(=O)O [Example 20-OAHFA, 20-(oleoyloxy)eicosanoic acid] |

| SMILES | spreading / monolayer formation on the aqueous surface [1] | mean molecular area at surface pressure lift-off ([1]; pure lipid on PBS) [Å^2/molecule] | melting point [°C] | maximum evaporation resistance [2] [s/cm] | surface pressure at transition to a solid monolayer ([1]; pure lipid on PBS) [mN/m] |
| --- | --- | --- | --- | --- | --- |
| CCCCCCCC/C=C\CCCCCCCC(=O)OCCCCCCCCCCCCCCCCCCCCCC [BO, behenyl oleate] | did not spread on the aqueous surface but formed solid aggregates instead | – | – | – | – |
